# Read-outs that look alike come from different tables or passages of the source.
# Legend:
# 143B/hu-TK cells = assay: MTT cytotoxicity assay, cell having human-TK gene introduced; format: cell-based
# Source text: (§1) At first, a primer was designed on the basis of the data base information of NCBI, followed by extracting DNA from B95a cells (J. Virol. 1990; 64(2): 700-5), and the TK gene of an EB virus was amplified by PCR method and cloned in the multicloning site of an expression plasmid vector pCI-neo (pCI-EB-TKneo). Similarly, human-TK gene was also amplified by PCR method and cloned (pCI-huTKneo). Whether the cloned gene fragment was a desired gene or not was judged by determining the base sequence.
# (§2) Then, TK-defect human osteosarcoma cells (143B) was transfected by lipofection method (Proc. Natl. Acad. Sci. USA 1987 November; 84(21): 7413-7) with the plasmid vector capable of expressing EB virus-TK gene or the plasmid vector capable of expressing human-TK gene, namely, pCI-EB-TKneo or pCI-huTKneo, and cells having each plasmid introduced therein were selected by the use of neomycin.
# (§3) The drug sensitivity of 143B/EB virus-TK, 143B/hu-TK, 143B TK(−) cells and EB virus persistent infection cells was determined on the basis of the cytotoxicity of each drug. That is, cells (143B/EB virus-TK, 143B/hu-TK and 143B TK(−) cells: 5×10^4 cells/100 μl; EB virus persistent infection cells: 20×10^4 cells/100 μl) were added to 96-well flat-bottom culture plates containing 100 μl of various concentrations of each drug. After 5 days of culture, the number of surviving cells was determined by MTT [3-(4,5-dimethylthiazol-2-yl)-2,5-diphenyltetrazolium bromide] assay. The cytotoxicity of the test drugs is expressed in terms of a concentration (CC50) at which the cell viability was decreased to 50%.
# 143B/EB virus-TK cells = assay: cells; conditions: read-out: CC50 143B/EB Virus-TK
# Source text: as §1, §2, §3
# [1] = MTT cytotoxicity assay, cell having human-TK gene introduced; format: cell-based; conditions: human
# Source text: as §1, §2, §3
# Namalwa cells = assay: MTT cytotoxic effect on EB virus infection cancer cells (Namalwa); format: cell-based; conditions: expression of TK −, MTT assay
# Method: as §3
# (§4) The cytotoxic effect of the medicinal agent of the present invention on EB virus infection cancer cells such as NC37 cells was investigated by MTT assay. […] However, neither of them was effective in cells in which EB virus-TK gene had not been expressed.
# Raji cells = assay: MTT cytotoxic effect on EB virus infection cancer cells (Raji); format: cell-based; conditions: expression of TK −, MTT assay
# Method: as §3, §4
# HS-Sultan cells = assay: MTT cytotoxic effect on EB virus infection cancer cells (HS-Sultan); format: cell-based; conditions: expression of TK −, MTT assay
# Method: as §3, §4
# NC37 cells = assay: MTT cytotoxic effect on EB virus infection cancer cells (NC37); format: cell-based; conditions: NC37, expression of TK +, MTT assay
# Method: as §3, §4
# KAI3 cells = assay: MTT assay on cells with a chronic active EB virus infectious disease; format: cell-based
# Method: as §3
# A chronic active EB virus infectious disease is an unfavorable infectious disease caused by infection of not B cells but natural killer T cells (NKT cells) with an EB virus. As such a chronic infection cell strain, KAI3 cells (Clin. Exp. Immunol. 1999 March; 115(3): 385-92) were purchased from Health Science Research Resources Bank, and the effect of the medicinal agent of the present invention on them was investigated by MTT assay. GCV was used as a control agent.
# B95a cells = assay: MTT cytotoxic effect on EB virus infection cancer cells (B95a); format: cell-based; conditions: expression of TK +, MTT assay
# Method: as §3, §4
# EB virus = assay: Acute infection of B lymphocytes with EB virus, EB virus DNA by real-time PCR; format: cell-based; conditions: B lymphocytes of a healthy person, cultured 2 weeks, PBMC#1287 and PBMC#5926, FIG. 2
# Method: B lymphocytes were separated from the blood of a healthy person. The B lymphocytes were infected with an EB virus in the presence of the medicinal agent of the present invention and cultured for 2 weeks. Thereafter, the infected B cells were recovered and then washed, followed by extraction of DNA. The amount of EB virus DNA in the B lymphocytes was determined by real-time PCR and taken as a virus copy number.
# [2] = MTT assay, 5 days of culture, read-out: CC50 143B/hu-TK
compound,measurement,setting,value
1-(2-deoxy-2-fluoro-4-thio-β-D-arabinofuranosyl)cytosine [4′-S-FMAC],CC50,143B/hu-TK cells; [2],0.04 µM
same,CC50,"143B/EB virus-TK cells; MTT assay, 5 days of culture",0.066 µM
"Cc1cn(C2(C#N)C[C@H](O)[C@@H](CO)O2)c(=O)[nH]c1=O (stereo partly shown) [1′-CN-dT, 1-(C-cyano-2-deoxy-ribofuranosyl)thymine]",CC50,143B/hu-TK cells,> 100 µM
same,CC50,"143B/EB virus-TK cells; MTT assay, 5 days of culture",> 100 µM
"O=c1[nH]c(=O)n([C@H]2C[C@H](O)[C@@H](CO)O2)cc1F [5FdU, 5-fluoro-2′-deoxyuridine]",CC50 at 5 days,[1],0.27 µM
same,CC50,"143B/EB virus-TK cells; Homo sapiens, 143B, 120 h",0.4 µM
"Nc1nc2c(ncn2COCCO)c(=O)[nH]1 [ACV, acyclovir]",CC50 at 5 days,[1],> 100 µM
"O=c1[nH]c(=O)n([C@H]2C[C@H](O)[C@@H](CO)O2)cc1C=CBr [BVDU, 5-bromovinyl-2′-deoxyuridine]",CC50 at 5 days,[1]; [2],> 300 µM
same,CC50,"143B/EB virus-TK cells; Homo sapiens, 143B, 120 h",122 µM
"O=c1[nH]c(=O)n([C@@H]2O[C@H](CO)[C@@H](O)[C@@H]2O)cc1C=CBr [BvaraU, 1-β-D-arabinofuranosyl-5-bromovinyluracil]",CC50 at 5 days,[1],> 200 µM
same,CC50,"143B/EB virus-TK cells; Homo sapiens, 143B, 120 h",> 200 µM
"Nc1nc(O)c2ncn(COC(CO)CO)c2n1 [GCV, ganciclovir]",Cytotoxic effect on EB virus infection cancer cells,Namalwa cells,>100 µM
same,CC50 at 5 days,[1],> 100 µM
same,Cytotoxic effect on EB virus infection cancer cells,Raji cells,55 µM
same,Cytotoxic effect on EB virus infection cancer cells,HS-Sultan cells,>100 µM
same,CC50,"143B/EB virus-TK cells; Homo sapiens, 143B, 120 h",> 100 µM
same,Cytotoxic effect on EB virus infection cancer cells,NC37 cells,27 µM
same,Effect on cells with a chronic active EB virus infectious disease,KAI3 cells,105 µM
same,Cytotoxic effect on EB virus infection cancer cells,B95a cells,36 µM
"Cc1cn([C@@H]2S[C@H](CO)[C@@H](O)[C@@H]2F)c(=O)[nH]c1=O [Medicinal agent of the invention, 1-(2-deoxy-2-fluoro-4-thio-β-D-arabinofuranosyl)-5-methyluracil]",Cytotoxic effect on EB virus infection cancer cells,Namalwa cells,>100 µM
same,CC50 at 5 days,[1],> 300 µM
same,Cytotoxic effect on EB virus infection cancer cells,Raji cells,22 µM
same,Cytotoxic effect on EB virus infection cancer cells,HS-Sultan cells,>100 µM
same,CC50,"143B/EB virus-TK cells; Homo sapiens, 143B, 120 h",0.11 µM
same,Cytotoxic effect on EB virus infection cancer cells,NC37 cells,2.1 µM
same,Effect on cells with a chronic active EB virus infectious disease,KAI3 cells,4.7 µM
same,Amount of EB virus DNA in the B lymphocytes (virus copy number),EB virus,reduces the amount of EB virus DNA in the B lymphocytes and inhibits new infection
same,Cytotoxic effect on EB virus infection cancer cells,B95a cells,2.2 µM

# — patent US20120225837A1, “MEDICINAL AGENT FOR DISEASE ASSOCIATED WITH EPSTEIN-BARR VIRUS, AND METHOD FOR SCREENING OF THE MEDICINAL AGENT” (Kyoto University, priority 2007, published 2012)
